Experimental data as given in patent US6455577B2, “Flavanone derivatives and composition for preventing or treating blood lipid level-related diseases comprising same” (Korea Research Institute of Bioscience and Biotechnology, priority 2000, dated 2002).

Legend:
[1] = system: ACAT; assay: ACAT activity in liver microsomes of fed rats; format: in vivo, rat
Method: To determine the effect of feeding NG5006 to rats on the activities of ACAT and HMG-CoA reductase, microsomes were separated from liver tissues to be used as an enzyme source.
1 g each of the livers taken from each group of rats of Example 12 was homogenized in 5 ml of homogenization medium(0. 1 M KH2PO4, pH 7.4, 0.1 mM EDTA and 10 mM β-mercaptoethanol). The homogenate was centrifuged at 3,000×g for 10 min. at 4° C. and the supernatant thus obtained was centrifuged at 15,000×g for 15 min. at 4° C. to obtain a supernatant. The supernatant was put into an ultracentrifuge tube(Beckman) and centrifuged at 100,000×g for 1 hour at 4° C. to obtain microsomal pellets, which were then suspended in 3 ml of the homogenization medium and centrifuged at 100,000×g for 1 hour at 4° C. The pellets thus obtained were suspended in 1 ml of the homogenization medium. The protein concentration of the resulting suspension was determined by Lowry's method and then adjusted to 4 to 8 mg/ml. The resulting suspension was stored in a deep freezer(Biofreezer, Forma Scientific Inc.).
6.67 μl of 1 mg/ml cholesterol solution in acetone was mixed with 6 μl of 10% Triton WR-1339(Sigma Co.) in acetone and then, acetone was removed from the mixture by evaporation under a nitrogen flow. Distilled water was added to the resulting mixture to adjust the concentration of cholesterol to […].
Added to 10 μl of the resulting aqueous cholesterol solution were 10 μl of 1 M KH2PO4(pH 7.4), 5 μl of 0.6 mM bovine serum albumin(BSA), 10 μl of microsome solution obtained in (Step 1) and 55 μl of distilled water(total 90 μl). The mixture was pre-incubated in a water bath at 37° C. for 30 min. […]
200 μl of the resulting supernatant was put in a scintillation bottle and 4 ml of scintillation fluid(Lumac Co.) was added thereto. The mixture was assayed for radioactivity with 1450 Microbeta liquid scintillation counter(Wallac Co., Finland). ACAT activity was calculated as picomoles of cholesteryl oleate synthesized per min. per mg protein(pmoles/min/mg protein).

[2] = system: New Zealand White rabbits; assay: Abnormal fat-containing liver cells (fatty liver) in cholesterol-fed rabbits; format: in vivo, rabbit
Method: 22 three-month-old New Zealand White rabbits(Yeonam Horticulture and Animal Husbandry College, Korea) each weighing about 2.0 to 2.3 kg were bred under a condition of temperature 20±2° C., relative humidity 55±10%, and photoperiod 12L/12D. The rabbits were divided two groups of 6 rabbits and a group of 10 rabbits, and the rats of three groups were fed with three different diets, i.e., RC4 diet(Oriental Yeast Co., Japan) containing 1% cholesterol(Control group); 1% cholesterol plus 1 mg/kg Lovastatin® (Merck, U.S.A.)(Comparative group); and 1% cholesterol plus 0.1% NG5006, respectively. RC4 diet comprises 7.6% moisture, 22.8% crude protein, 2.8% crude fat, 8.8% crude ash, 14.4% crude cellulose and 43.6% soluble nitrogen-free substances. The rabbits were bred for 8 weeks while being allowed free access to the diets and water.
In order to evaluate the effects of feeding a high cholesterol diet with NG5006 on liver tissues, the liver specimens taken from the sacrificed rabbit in Step 2 of Example 14 were treated in accordance with the procedure disclosed in Fogt F. and Nanji A., Toxicology and Applied Pharmacology, 136, 87-93, 1996; and Keegan A., et al., Journal of Hepatology, 23, 591-600, 1995, and observed under a microscope to be classified into four grades, i.e., 1+(0-25%), 2+(26-50%), 3+(51-75), 4+(76-100%) based on the proportion of abnormal fat-containing cells around the central vein in the liver acinus. The results were tested by student t-test by using Microsoft excel(version 7.0) program.

## CCCCCCCCCCCCCCCCOc1cc(O)c2c(c1)OC(c1ccc(O)cc1)CC2=O (centres unmarked) [NG5006, Naringenin 7-O-cetyl Ether]
[1]; NG5006-fed rat group
  ACAT activity lower than that of the control group: 14%
[1]; liver microsomes of rats fed 1% cholesterol plus 0.02% naringenin or 0.036% NG5006, six weeks
  ACAT activity: 149.7 ± 5.1 pmole/min/mg protein
[2]; 1% cholesterol plus 1 mg/kg Lovastatin or 0.1% NG5006
  microscopic features of the livers (FIGS. 2B, 2C): almost all liver cells are of a normal shape
[2]; 1% cholesterol plus 0.1% NG5006
  formation of fatty liver compared to the Control and the Lovastatin group, in words: significantly inhibits the formation of fatty liver
[2]; grades 1+(0-25%), 2+(26-50%), 3+(51-75), 4+(76-100%), 1% cholesterol plus 1 mg/kg Lovastatin or 0.1% NG5006, 8 weeks
  Proportion of abnormal fat-containing liver cells (grade): 2.2 ± 0.9
